Source: patent US20060063785A1, “Substituted pyrazolo[1,5-a] pyrimidines and process for making same” (priority 2004, published 2006)

These compounds were tested on 80S14 (p21-deficient) cells (assay: Determination of selectivity of compounds for p21-/- cells: IC50 in 80S14 cells (SRB)). Conditions: 80S14 (p21-deficient) cells, 5 days at 37° C., SRB; read-out: IC50 for 80S14.
Assay type: cell-based, human
Protocol: • 1. 80S14 (p21-deficient) cells were cultured in RPMI 1640 medium (Gibco/Invitrogen Life technologies) supplemented with 10% fetal bovine serum (FBS, Gibco) and 10 μg/ml gentamycin (Gibco). Cells were maintained at 37° C. under 7% CO2. • 2. Cells were plated at 6×10^4/ml (0.2 ml/well; 12,000 cells/well) in 96-well microtiter plates (Falcon or Corning/Costar) and incubated at 37° C. overnight (18-24 hours). • 3. 2-5 μl of the test agent-[200 μg/ml stock in 20% DMSO/20 mM HEPES, pH 7.5 (Gibco)] was added to each well to achieve a final concentration of 2-5 μg/ml. Cells were incubated with the test compounds for 5 days at 37° C. • 4. Surviving cells were fixed with 50 μl 50% trichloroacetic acid (Sigma; 10% final concentration) for 1 hour at 4° C. • 5. Plates were rinsed twice with water (0.3 ml per wash using MRD8 robot), and allowed to dry. • 6. Sulforhodamine B (SRB) (Sigma; 0.4% in 1% acetic acid, 50 μl per well; MRD8 robot) was added and plates kept at room temperature for 10 minutes. • 7. Excess dye was removed by washing with 1% acetic acid (3 times, 0.3 ml per wash; MRD8 robot) and allowed to dry. • 8. The dye was solubilized in Tris base (Sigma; 10 mM, 150 μl per well). Plates were kept at room temperature for 30 minutes to allow the dye to diffuse. • 9. Absorbance was measured at 540 nm. • 10. The percentage of cells surviving drug treatment relative to control wells (no drug) was determined. • 11. The difference in % cell survival between the two cell lines was calculated. • 12. Compounds producing a difference score of >50 were considered to be selective for the p21-deficient cells and were evaluated further. Determination of Selectivity of Compounds for p21−/− Cells: • 1. 80S14 cells were cultured as described above. • 2. Cells were seeded in 96-well microtiter plates at 12,000 cells/well (either 0.15 ml/well of 8×10^4 cells/ml suspension, or 0.2 ml/well of 6×10^4 cells/ml suspension). Plates were incubated at 37° C. overnight (18-24 hours). • 3. Serial dilutions of the test agent were added to each well. Dilutions were prepared either in 40% DMSO/20% methanol/20 mM HEPES, pH 7.5 (Gibco) or directly in growth medium. One of two dose ranges were used: 5 pM to 50 μM or 170 pg/ml to 10 μg/ml. Cells were incubated with the test compounds for 5 days at 37° C. • 4. Surviving cells were fixed with 50 μl 50% trichloroacetic acid (Sigma; 10% final concentration) for 1 hour at 4° C. • 5. Plates were rinsed extensively in water, and allowed to dry. • 6. Sulforhodamine B (Sigma; 0.4% in 1% acetic acid, 70 μl per well) was added and plates kept at room temperature for 10 minutes. • 7. Excess dye was removed by washing 5 times with 1% acetic acid and plates were allowed to dry. • 8. The dye was solubilized in Tris base (Sigma; 10 mM, 150 μl per well). Plates were placed on a titer plate shaker (Lab Line Instruments) for 5 minutes to allow the dye to diffuse. • 9. Absorbance was measured at 560 nm.
10. The drug concentration which inhibits cell proliferation by 50% relative to untreated controls (IC50) was determined from cytotoxicity curves.
Compound `CC(C)C[C@H](N)C(=O)Nc1cccc(-c2ccnc3c(C(=O)c4cccs4)cnn23)c1` [Example 61, N-1-{3-[3-(thien-2-ylcarbonyl)pyrazolo[1,5-a]pyrimidin-7-yl]phenyl}-L-leucinamide] has an IC50 of 10 to 50 µM.
Compound `O=C(CNC(=O)NC1CCCCC1)Nc1cccc(-c2ccnc3c(C(=O)c4cccs4)cnn23)c1` [Example 120, N-2-[(cyclohexylamino)carbonyl]-N-1-{3-[3-(thien-2-ylcarbonyl)pyrazolo[1,5-a]pyrimidin-7-yl]phenyl}glycinamide] has an IC50 of 1 to 10 µM.
`N[C@@H](CC1CCCCC1)C(=O)Nc1cccc(-c2ccnc3c(C(=O)c4cccs4)cnn23)c1` [Example 64, 3-cyclohexyl-N-1-{3-[3-(thien-2-ylcarbonyl)pyrazolo[1,5-a]pyrimidin-7-yl]phenyl}-L-alaninamide] showed an IC50 of 10 to 50 µM.
In the case of `CC12CCC(C(=O)Nc3cccc(-c4ccnc5c(C(=O)c6cccs6)cnn45)c3)(OC1=O)C2(C)C` (centres unmarked) [Example 43], the IC50 is reported as under 1 µM.
Compound `NCC(=O)Nc1cccc(-c2ccnc3c(C(=O)c4cccs4)cnn23)c1` [Example 59, N-1--{3-[3-(thien-2-ylcarbonyl)pyrazolo[1,5-a]pyrimidin-7-yl]phenyl}glycinamide] has an IC50 of 10 to 50 µM.
Compound `O=C(COc1ccccc1)Nc1cccc(-c2ccnc3c(C(=O)c4cccs4)cnn23)c1` [Example 93, 2-phenoxy-N-{3-[3-(thien-2-ylcarbonyl)pyrazolo[1,5-a]pyrimidin-7-yl]pheriyl}acetamide] has an IC50 of 1 to 10 µM.
For `CC[C@H](C)[C@H](N)C(=O)Nc1cccc(-c2ccnc3c(C(=O)c4cccs4)cnn23)c1` [Example 62, N-1-{3-[3-(thien-2-ylcarbonyl)pyrazolo[1,5-a]pyrimidin-7-yl]phenyl}-L-isoleucinamide], the IC50 was 1 to 10 µM.
`COCCOCC(=O)Nc1cccc(-c2ccnc3c(C(=O)c4cccs4)cnn23)c1` [Example 49, 2-(2-methoxyethoxy)-N-{3-[3-(thien-2-ylcarbonyl)pyrazolo[1,5-a]pyrimidin-7-yl]phenyl} acetamide] showed an IC50 of 1 to 10 µM.
Work on `COC(=O)CCC(=O)Nc1cccc(-c2ccnc3c(C(=O)c4cccs4)cnn23)c1` [Example 35, methyl 4-oxo-4-({3-[3-(thien-2-ylcarbonyl)pyrazolo[1,5-a]pyrimidin-7-yl]phenyl}anmino)butanoate] yielded an IC50 of 10 to 50 µM.
`CCNC(=O)NCC(=O)Nc1cccc(-c2ccnc3c(C(=O)c4cccs4)cnn23)c1` [Example 119, N-2-[(ethylamino)carbonyl]-N-1-{3-[3-(thien-2-ylcarbonyl)pyrazolo[1,5-a]pyrimidin-7-1yl]phenyl}glycinamide] was tested, and the IC50 was 1 to 10 µM.

Same assay, conditions: Cellular activity in 80S14 (p21-deficient) cells, SRB; class symbols; read-out: IC50 for 80S14
Compound “tert-Butyl 4-[({3-[3-[3-(thien-2-ylcarbonyl)pyrazolo[1,5-a]pyrimidin-7-yl]phenyl}amino)carbonyl]piperidine-1-carboxylate [Example 295]” has an IC50 of 1 to 10 µM.
In the case of `CC(C)COC(=O)Nc1cccc(-c2ccnc3c(Br)cnn23)c1` [Example 225, Isobutyl 3-(3-bromopyrazolo[1,5-a]pyrimidin-7-vl)phenvlcarbamate], the IC50 is reported as 10 to 50 µM.
For “N-{3-[3-(2-Thienylcarbonyl)pyrazolo[1,5-a]pyrimidin-7-yl]phenyl}-3-trifluoromethyl)benzamide [Example 193]”, the IC50 was under 1 µM.
With `Cc1cc(-c2cccc(NC(=O)C3CO3)c2)n2ncc(C(=O)c3cccs3)c2n1` (centres unmarked) [Example 191, {3-[5-Methyl-3-(2-thienylcarbonyl)pyrazolo[1,5-a]pyrimidin-7-yl]phenyl}-2-oxiranecarboxamide] the IC50 was under 1 µM.
In the case of “3-(3,5-Dimethylphenyl)-7-{3-[2-(2-piperidin-1-ylethyl)-2H-tetrazol-5-yl]phenyl}pyrazolo[1,5-a]pyrimidine [Example 388]”, the IC50 is reported as 1 to 10 µM.
With “3.5-Dinitro-N-{3-[3-(2-thienylcarbonyl)pyrazolo[1,5-a]pyrimidin-7-yl]phenyl}benzamide [Example 198]” the IC50 was 10 to 50 µM.

Same assay, conditions: Homo sapiens, 80S14, 120 h, read-out: IC50 for 80S14 (μM)
Compound `C=C(C)OC(=O)Nc1cccc(-c2ccnc3c(C(=O)c4cccs4)cnn23)c1` [Example 15, isopropenyl3-[3-(thien-2-ylcarbonyl)pyrazolo[1,5-a]pyrimidin-7-yl]phenylcarbamate] has an IC50 of under 1 µM.

Same assay, conditions: Homo sapiens, 120 h; 80S14 (p21-deficient) cells, 5 days at 37° C., SRB; read-out: IC50 for 80S14
Compound `C#CCCC(=O)Nc1cccc(-c2ccnc3c(C(=O)c4cccs4)cnn23)c1` [Example 45, N-{3-[3-(thien-2-ylcarbonyl)pyrazolo[1,5-a]pyrimidin-7-yl]phenyl}pent-4-ynamide] has an IC50 of under 1 µM.
`N[C@H](C(=O)Nc1cccc(-c2ccnc3c(C(=O)c4cccs4)cnn23)c1)C1CCCCC1` [Example 68, (2S)-2-amino-2-cyclohexyl-N-{3-[3-(thien-2-ylcarbonyl)pyrazolo[1,5-a]pyrimidin-7-yl]phenyl}ethanamide] was tested, and the IC50 was 1 to 10 µM.
`O=C(c1cccs1)c1cnn2c(-c3cccc(NC(=O)[C@@H]4CCCN4)c3)ccnc12` [Example 67, N-{3-[3-(thien-2-ylcarbonyl)pyrazolo[1,5-a]pyrimidin-7-yl]phenyl}-L-prolinamide] gave an IC50 of 1 to 10 µM.
Compound `CC(C)(C)C(=O)NCC(=O)Nc1cccc(-c2ccnc3c(C(=O)c4cccs4)cnn23)c1` [Example 114, 2,2-dimethyl-N-[2-oxo-2-({3-[3-(thien-2-ylcarbonyl)pyrazolo[1,5-a]pyrimidin-7-yl]phenyl}amino)ethyl]propanamide] has an IC50 of 1 to 10 µM.
For `CC(=O)OCC(=O)Nc1cccc(-c2ccnc3c(C(=O)c4cccs4)cnn23)c1` [Example 48, 2-oxo-2-({3-[3-(thien-2-ylcarbonyl)pyrazolo[1,5-a]pyrimidin-7-yl]phenyl}amino)ethyl acetate], the IC50 was 1 to 10 µM.
`O=C(c1cccs1)c1cnn2c(-c3cccc(NC(=O)C45CC6CC(CC(C6)C4)C5)c3)ccnc12` [Example 42, N-{3-[3-(thien-2-ylcarbonyl)pyrazolo[1,5-a]pyrimidin-7-yl]phenyl} adamantane-1-carboxamide] showed an IC50 of under 1 µM.
In the case of `O=C(Cc1cccs1)Nc1cccc(-c2ccnc3c(C(=O)c4cccs4)cnn23)c1` [Example 50, 2-thien-2-yl-N-{3-[3-(thien-2-ylcarbonyl)pyrazolo[1,5-a]pyrimidin-7-yl]phenyl}acetamide], the IC50 is reported as under 1 µM.
With `O=C(CNC(=O)C12CC3CC(CC(C3)C1)C2)Nc1cccc(-c2ccnc3c(C(=O)c4cccs4)cnn23)c1` [Example 116, N-[2-oxo-2-({3-[3-(thien-2-ylcarbonyl)pyrazolo[1,5-a]pyrimidin-7-yl]phenyl}amino)ethyl] adamantane-1-carboxamide] the IC50 was 1 to 10 µM.
`O=C(c1cccs1)c1cnn2c(-c3cccc(NC(=O)[C@@H]4CCCN4C(=O)C(F)(F)F)c3)ccnc12` [Example 41, N-{3-[3-(thien-2-ylcarbonyl)pyrazolo[1,5-a]pyrimidin-7-yl]phenyl}-1-(trifluoroacetyl)-L-prolinamide] showed an IC50 of 1 to 10 µM.

Same assay, conditions: Homo sapiens; Cellular activity in 80S14 (p21-deficient) cells, SRB; class symbols; read-out: IC50 for 80S14
`O=C(CCc1cccnc1)Nc1cccc(-c2ccnc3c(C(=O)c4cccs4)cnn23)c1` [Example 336, 3-Pyridin-3-yl-N-{3-[3-(thien-2-ylcarbonyl)pyrazolo [1,5-a]pyrimidin-7-yl]phenyl}propanamide] gave an IC50 of 1 to 10 µM.
In the case of `CN1CCC(C(=O)Nc2cccc(-c3ccnc4c(C(=O)c5cccs5)cnn34)c2)CC1` [Example 307, 1-Methyl-N-{3-[3-(thien-2-ylcarbonyl)pyrazolo[1,5-a]pyrimidin-7-yl]phenyl}piperidine-4-carboxamide], the IC50 is reported as 10 to 50 µM.
`O=C(Nc1cccc(-c2ccnc3c(C(=O)c4cccs4)cnn23)c1)NC1CCCCC1` [Example 249, N-Cyclohexyl-N′-{3-[3-(thien-2-ylcarbonyl)pyrazolo[1,5-a]pyrimidin-7-yl]phenyl}urea] showed an IC50 of under 1 µM.
